This note sets out measurements from paper PMC2700083, “A covalent peptide inhibitor of RGS4 identified in a focused one-bead, one compound library screen” (BMC Pharmacology, 2009).

Assay type in all cases: binding
What all share (details): read-out: 5nd logIC50 (converted)

One assay addresses T1, RGS4 A148C, -7C (Rattus norvegicus, UniProt P49799, C132A/C183A/C197A/C204A/C71A/C95A).
T1 construct: made in house
T1 sequence (P49799 52-205 C71A/C95A/C132A/C183A/C197A/C204A): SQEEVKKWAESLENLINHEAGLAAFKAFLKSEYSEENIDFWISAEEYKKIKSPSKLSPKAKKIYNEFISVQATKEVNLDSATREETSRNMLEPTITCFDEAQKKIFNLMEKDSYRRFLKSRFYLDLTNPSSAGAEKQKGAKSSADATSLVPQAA
As to the kind of experiment: FCPIA, RGS4 A148C in the -7C. The protocol:
(§1) Figure 5 Dose curves of 5nd on various RGS4 cysteine mutants. Various concentrations of 5nd were tested for disruption of the RGS4-Gαo interaction for C95A (5 nM), or […], C71A (5nM) or C148A (5nM) (B), A95C in the -7C (5nM), or A132C in the -7C (5nM) (C), A71C in the -7C (5nM), or A148C in the -7C (5nM) (D) or the mutant with no cysteines in the domain (20 nM) or the C-terminus (20 nM) (E) in the FCPIA (mean ± S.E.M., n ≥ 3).
The previous experiments tested which cysteines are necessary for inhibition by 5nd. In an alternative approach, we added cysteines back to the -7C mutant to determine which might be sufficient for 5nd activity. […] Furthermore, Cys132 is involved in the actions but this is clearly not sufficient to explain them. Thus it is concluded that 5nd is at least partially non-selective in its cysteine modification.
Proteins were expressed, purified and labeled as described previously. The mutagenesis was done using the "QuickChange Multi Site-Directed Mutagenesis Kit" from Stratagene according to the manufacturer's protocol. The construct of RGS4 used in these studies is a maltose binding protein (MBP-) fusion protein of the RGS4 sequence from which the amphipathic N-terminal helix has been removed (i.e. MBP-RGS4Δ51N). For simplicity in the text, this will be referred to as RGS4. […]

The target in the next assay is T2, RGS4 C71A (Rattus norvegicus, UniProt P49799, C71A).
T2 construct: made in house
T2 sequence (P49799 52-205 C71A limits assumed): T1 sequence (P49799 52-205 C71A/C95A/C132A/C183A/C197A/C204A) with A44C, A81C, A132C, A146C, A153C
As to the kind of experiment: FCPIA, RGS4 cysteine mutant C71A. The method, then: as §1
(§2) Proteins were expressed, purified and labeled as described previously. The mutagenesis was done using the "QuickChange Multi Site-Directed Mutagenesis Kit" from Stratagene according to the manufacturer's protocol. The construct of RGS4 used in these studies is a maltose binding protein (MBP-) fusion protein of the RGS4 sequence from which the amphipathic N-terminal helix has been removed (i.e. MBP-RGS4Δ51N). For simplicity in the text, this will be referred to as RGS4. All other RGS proteins were human sequences and were used as Mpb fusions: RGS7 RGS domain (aa: 305–453), RGS8 full length, RGS16 full length, and RGS19ΔC11 (amino acids 1–209). To cleave RGS4Δ51N from the MBP-His6 construct for MS analysis, MBP-His6-RGS4Δ51N was treated with 15% MBP-His6-TEV protease S219V [11] for 22 hours at 4°C and purified over a Ni-NTA column.
(§3) FCPIA was performed as previously published.

The target in another assay is T3, RGS4 C95A (Rattus norvegicus, UniProt P49799, C95A).
T3 construct: made in house
T3 sequence (P49799 52-205 C95A limits assumed): T1 sequence (P49799 52-205 C71A/C95A/C132A/C183A/C197A/C204A) with A20C, A81C, A132C, A146C, A153C
As to the kind of experiment: FCPIA, RGS4 cysteine mutant C95A. The protocol:
as §1, §2, §3

Residue numbers refer to the chain shown, from its start. Where a SMILES comes first, the peptide text is derived from it. Bridges are numbered along the chain shown (N, C = ends).

For the compound `CC(C)C[C@@H]1NC(=O)CNC(=O)[C@H](CCCCN)NC(=O)[C@@H](NC(=O)[C@H](Cc2c[nH]c3ccccc23)NC(=O)[C@@H](N)Cc2ccc(O)cc2)CSSC[C@@H](C(=O)N[C@@H](CCCCN)C(N)=O)NC1=O` [Peptide 5nd, Tyr-Trp-c [Cys-Lys-Gly-Leu-Cys]-Lys-NH2, S-S] (H-YWCKGLCK-NH2; disulfide 3-7), the IC50 on RGS4 A148C, -7C is 309 µM; on RGS4 C71A it was 45.7 µM; at RGS4 C95A, 19.5 µM.
